Read-outs that look alike come from different tables or passages of the source.
What was measured:
CETP = target: T1, CETP (Homo sapiens, UniProt P11597); test: In vitro CETP activity assay in human plasma (serum pools of differing triglyceride level); assay type: biochemical; conditions: for IC50: human serum pool
T1 construct: Human serum samples were obtained from the Novartis Institutes for BioMedical Research donor program; tissue Novartis donor program; Bioreclamation (Westbury, N.Y.); Uniglobe (Reseda, Calif.); host or cells: pooled human donor serum
T1 sequence (P11597 18-493): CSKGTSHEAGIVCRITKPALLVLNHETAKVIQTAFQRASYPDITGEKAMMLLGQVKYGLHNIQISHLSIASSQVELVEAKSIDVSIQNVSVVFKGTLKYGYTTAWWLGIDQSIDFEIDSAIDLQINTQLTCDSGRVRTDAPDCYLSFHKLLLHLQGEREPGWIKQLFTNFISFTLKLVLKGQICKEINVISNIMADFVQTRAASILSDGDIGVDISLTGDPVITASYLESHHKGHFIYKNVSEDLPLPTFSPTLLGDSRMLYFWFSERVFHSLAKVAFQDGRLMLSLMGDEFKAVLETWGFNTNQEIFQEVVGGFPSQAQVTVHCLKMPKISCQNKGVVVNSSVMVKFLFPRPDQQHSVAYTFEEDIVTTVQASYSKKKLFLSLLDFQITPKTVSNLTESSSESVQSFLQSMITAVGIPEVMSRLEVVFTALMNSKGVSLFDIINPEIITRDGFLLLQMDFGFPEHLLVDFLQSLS
Experimental: Pro-apoA-1 containing microemulsion as a donor particle was prepared following previous report (J. Biol. Chem., 280:14918-22). Glyceryl trioleate (500 ug, Sigma-Aldrich, Cat. No. T7140), 3-sn-phosphatidylcholine (4680 ug, Sigma, Cat. No. P2772), and cholesteryl BODIPY FL 012 (2 mg, Invitrogen, CA, Cat. No. C-3927MP) were dissolved in 1.5 mL of chloroform. The solution was evaporated, and residual solvent was removed under vacuum for more than 1 hr at room temperature. The dried lipid mixture was dissolved in 7 ml of the assay buffer (50 mM Tris-HCl (pH 7.4) containing 150 mM NaCl and 2 mM EDTA) and sonicated in water bath for 1 hr. The solution was split into two tubes of 3.5 ml each. Each tube was sonicated at 50° C. with a microtip (MICROSON™ ULTRASONIC CELL DISRUPTOR, Misonix, Farmingdale, N.Y.) at output power 006 for 10 min (every other 25 seconds). The solution was cooled to 40° C. and 400 ug of pro-apoA-1 was added to each tube (total volume of 4 mL). Then, the solution was sonicated at output power 004 for 20 min (every other 30 seconds). Final Concentration: Glyceryl Tiroleate: 62.5 ug/ml, PC: 585 ug/ml, Bodipy CE: 250 ug/ml, Pro-apoA-1: 100 ug/ml. Centrifuge solution at 5200×g for 5 minutes and store the supernatant at 4′C.
Human serum samples were obtained from the Novartis Institutes for BioMedical Research donor program (normal triglyceride samples) or purchased from Bioreclamation (Westbury, N.Y.) or Uniglobe (Reseda, Calif.). General requirements for human serum donors included: male gender, 20-55 years of age, not currently on a lipid altering medication, non-fasting at time of blood collection, and a total cholesterol level between 200-300 mg/dL. Donor samples were selected primarily on the basis of serum triglyceride level, using the following classifications: normal triglycerides (<150 mg/dL); high triglycerides (300-500 mg/dL); and very high triglycerides (750-1200 mg/dL). A total of 4 individual serum samples from each classification were used in these experiments. For each of the 3 triglyceride classifications, two serum sample pools were prepared. The mean plasma triglyceride concentrations (mg/dL) for the pools were: Normal: 101.35; High: 347.5; Very high 1, 868.45; Very high 2, 1269.35.
Donor solution is prepared by a dilution of donor microemulsion with assay buffer (1.7 ul donor+8.3 ul Buffer). Human serum (25 μL), assay buffer (14 μL) and 50× test compound dissolved in 100% dimethylsulfoxide (1 μL) are added to each well of 384 well black, clear-bottom plate (NUNC. Thermo Fisher #242764). The reaction is started by the addition of donor solution (10 μL) into each well. Fluorescence intensities are measured every 10 min at 37° C. with excitation wave length of 485 nm and emission wavelength of 515 nm over an 80 minute period, using a SpectraMax M5 from Molecular Devices (Sunnyvale, Calif.). The CETP activity (RFU/min) is defined as the change of fluorescence intensity from 40 to 70 min. Percent CETP inhibition is calculated as follows: ((100% Act−Wellcmpnd)/100% Act))*100. IC50 values were calculated with GraphPad Prism 5 software.

[1] = HDL-C in cynomolgus monkeys on chow or high carbohydrate diet; assay type: in vivo; conditions: Anacetrapib 10 mg/kg, mean ± SD; for HDL-C % Δ vs day 0, Day 7, Chow / HDL-C % Δ vs day 0, Day 14, Chow: chow diet; for HDL-C % Δ vs day 0, Day 7, Chow / HDL-C % Δ vs day 0, Day 7, High CHO: day 7, Example 8 3 mg/kg; for HDL-C % Δ vs day 0, Day 14, Chow / HDL-C % Δ vs day 0, Day 14, High CHO: day 14, Example 8 3 mg/kg; for HDL-C % Δ vs day 0, Day 7, High CHO / HDL-C % Δ vs day 0, Day 14, High CHO: high carbohydrate diet
From the text: Normal male cynomolgus monkeys (n=17) weighing between 8-14 kg are placed on a high-carbohydrate, low-fat diet. The caloric composition of the diet is approximately 13.4% protein, 79.1% carbohydrate (sugar to starch ratio 50:50) and 7.5% fat. Calories are derived from standard monkey chow (LabDiet® 5047, PMI, Richmond, Ind. or LabDiet® 5000, Balanced Fiber diet, PMI, Richmond, Ind.) in quantities necessary to meet the protein and fat requirements, with the remaining calories provided by sugar-sweetened cereals, candies, and fruit (banana, orange, cantaloupe, honeydew, pineapple). The high-carbohydrate (CHO) diet will be fed for 18 days (4 days of pre-drug diet, 14 days of drug treatment), after which time they will return to their regular chow diets for a 14 day washout period followed by a second 14 day dosing phase of the study (normal diet).
Compound of Example 8 is dissolved at 30 mg/mL in 1M NaOH+ethanol:maisoel glyceride:propylene glycol:cremophor RH40 (10:36:9:45) and diluted 1:10 in ddH2O. […] The formulations are prepared each day (weekend doses are prepared on Friday) and stored stirring and protected from light at room temperature until dosing. Artificial flavor and color will be added to the dose when prepared.
The animals will ingest the compounds (1 mL/kg) voluntarily from a plastic syringe offered at their home cage at approximately 8 am daily. Animals will be fed 60 minutes after the dose is administered.
Blood collection will take place weekly during each dosing phase. Animals are fasted overnight (approximately 16 hours) prior to blood collection. Blood samples are collected from a saphenous vein via needle and syringe and put into 2 mL EDTA-coated tubes that are immediately placed on ice until centrifugation. Samples are centrifuged at 3,000 rpm for 20 minutes. The plasma is collected, divided into aliquots (listed below), and stored at −70° C. until analysis.

SMILES: COc1cc(F)c(C(C)C)cc1-c1ccc(C(F)(F)F)cc1CN1C(=O)O[C@H](c2cc(C(F)(F)F)cc(C(F)(F)F)c2)[C@@H]1C [Anacetrapib, reference compound]
- Retention of CETP inhibitory activity in plasma from hypertriglyceridemic human subjects (CETP; in vitro, plasma from subjects with elevated triglycerides): does not retain its potency
- HDL-C % Δ vs day 0, Day 7, Chow [1]: 141 ± 45%
- HDL-C % Δ vs day 0, Day 14, Chow [1]: 136 ± 28%
- HDL-C % Δ vs day 0, Day 7, High CHO [1]: 172 ± 34%
- HDL-C % Δ vs day 0, Day 14, High CHO [1]: 184 ± 45%

SMILES: CC[C@@H]1C[C@H](N(Cc2cc(C(F)(F)F)cc(C(F)(F)F)c2)c2ncc(-c3cnn(C)c3)cn2)C[C@H](CC)N1C(=O)O[C@H]1CC[C@H](C(=O)O)CC1 [Example 8]
- IC50 (CETP; TG = 101.35 mg/dL (normal), read-out: CETP IC50 (nM) TG = 101.35 mg/dL): 88.4 nM
- IC50 (CETP; TG = 374.5 mg/dL (high), read-out: CETP IC50 (nM) TG = 374.5 mg/dL): 51.9 nM
- IC50 (CETP; TG = 1269.35 mg/dL (very high 2), read-out: CETP IC50 (nM) TG = 1269.35 mg/dL): 61.4 nM
- HDL-C % Δ vs day 0, Day 7, Chow [1]: 144 ± 57%
- HDL-C % Δ vs day 0, Day 14, Chow [1]: 142 ± 33%
- HDL-C % Δ vs day 0, Day 7, High CHO [1]: 210 ± 24%
- HDL-C % Δ vs day 0, Day 14, High CHO [1]: 241 ± 29%

— US9867811B2, “Method of treating atherosclerosis in high triglyceride subjects” (NOVARTIS AG, priority 2011, dated 2018)
